Assay results as given in patent US10399953B2, “Preparation of furan fatty acids from 5-(chloromethyl)furfural” (THE REGENTS OF THE UNIVERSITY OF CALIFORNIA, priority 2015, dated 2019).

Experiment: 2,2-diphenyl-1-picrylhydrazyl (DPPH) radical scavenging assay
Type: biochemical
Conditions: for DPPH Scavenging %: 30 minutes, room temperature, dark, absorption at 517 nm; for antioxidant activity (quenching of the DPPH radical), in words: 25, 50 and 100 μg/mL
From the text: The antioxidant activity of the FFAs has been evaluated by a range of methods, including spin trapping of N-oxide radicals (Okada et al. (1996) Biol. Pharm. Bull. 19: 1607), inhibition of radically initiated oxygen uptake in linoleic acid (Okada et al. (1990) J. Am. Oil Chem. Soc. 67: 858) and unsaturated fatty acid moieties of phosphatidyl choline liposomes (Ishii et al. (1989) Chem. Pharm. Bull. 37: 1396), and acting as a substrate for plant lipoxygenase (Batna and Spiteller (1994) Lipids 29: 397). We have evaluated the free radical scavenging abilities of synthetic FFAs 5a (n=1, m=9, R^1=R^2=H) and 5b (n=1, m=9, R^1=R^2=Me) against butylated hydroxytoluene (BHT) by 2,2-diphenyl-1-picrylhydrazyl (DPPH) assay.
The method of Moon and Shibamoto (Moon and Shibamoto (2009) J. Agric. Food Chem. 57: 1655) was used to evaluate antioxidant activity. DPPH (0.0177 g) was dissolved in methanol (MeOH) (100 mL) and 500 μL of this solution was added into test tubes containing 11-(5-propylfuran-2-yl)undecanoic acid and 11-(3,4-dimethyl-5-propylfuran-2-yl)undecanoic acid at concentrations of 25, 50, and 100 μg/mL after dilution of stock solutions with MeOH to 1.0 mL total volume. A 1.0 mg/mL BHT stock solution (100 μL) was diluted with 400 μL methanol and the DPPH solution (500 μL). A control solution was prepared by adding methanol (500 μL) into the DPPH solution (500 μL), and a methanol blank was used for the baseline correction. The tubes were allowed to stand at room temperature in the dark for 30 minutes and the change in the absorption at 517 nm was measured by UV-visible spectrometry. Radical scavenging ability was expressed as DPPH scavenging % and calculated using this formula: DPPH scavenging %=(control abs.−sample abs./control abs.)×100.

Row | Compound | inhibition (DPPH assay) (100 μg/mL) | DPPH Scavenging % (100 μg/mL) | DPPH Scavenging % (25 μg/mL) | DPPH Scavenging % (50 μg/mL) | antioxidant activity (quenching of the DPPH radical), in words | antioxidant power relative to BHT on a mass basis (of BHT, mass basis, 100 μg/mL) | antioxidant power relative to BHT based on molar concentrations (of BHT, recalculated on molar concentrations)
1 | Cc1cc(C(C)(C)C)c(O)c(C(C)(C)C)c1 [BHT, butylated hydroxytoluene, reference compound] | 93% | 93% |  |  |  |  | 
2 | CCCc1ccc(CCCCCCCCCCC(=O)O)o1 [Compound 5a, 11-(5-Propylfuran-2-yl)undecanoic Acid] |  | −3% | 4% | −2% | virtually no antioxidant activity |  | 
3 | CCCc1oc(CCCCCCCCCCC(=O)O)c(C)c1C [Compound 5b, 11-(3,4-Dimethyl-5-propylfuran-2-yl)undecanoic Acid] | 53% | 53% | 7% | 27% | concentration-dependent quenching of the DPPH radical | 57% | 83%
